Measured values taken from patent US4112228A, “7-(D-α-Hydroxy-2-arylacetamido)-3-(2-carboxyalkyl-2,3-dihydro-s-tri azolo-[4,3-b]pyridazin-3-on-6-ylthiomethyl)-3-cephem-4-carboxylic acids and derivatives” (priority 1977, dated 1978).
Converted amounts (≈) assume the structure as drawn. Read-outs that look alike come from different tables or passages of the source.

Assays:
[1] = tested on: Kl. pneumoniae; assay: MIC by Steers' agar dilution method; type: cell-based; conditions: Klebsiella pneumoniae
[2] = tested on: B. anthracis; assay: microbe, parasite or virus in culture; type: cell-based; conditions: Bacillus anthracis
[3] = Blood levels in mice after subcutaneous administration; type: in vivo; conditions: mouse, read-out: Blood level; for concentration at 0.25 h: 15'; for concentration at 0.5 h: 30'; for concentration at 1 h: 60'; for concentration at 2 h: 120'
Protocol: Groups of mice were administered subcutaneously graded doses of 40, 20 and 10 mg./kg..

[4] = tested on: S. aureus Smith; assay: Standard experimental infection in mice; type: in vivo; conditions: Table 6
[5] = Urinary recovery in rats; type: in vivo; conditions: rat, urine, sc 10 mg./kg., 0-24 Hrs.
[6] = tested on: St. faecalis; assay: MIC by Steers' agar dilution method; conditions: Enterococcus faecalis
[7] = tested on: Pr. mirabilis; assay: MIC by Steers' agar dilution method; conditions: Proteus mirabilis

## O=C(O)Cn1nc2ccc(SCC3=C(C(=O)O)N4C(=O)C(NC(=O)[C@H](O)c5ccccc5)[C@H]4SC3)nn2c1=O (stereo partly drawn) [BB-S488, 7-(D-Mandelamido)-3-(2-carboxymethyl-2,3-dihydro-s-triazolo[4,3-b]pyridazin-3-on-6-ylthiomethyl)-3-cephem-4-carboxylic Acid]
[1]; A9678, MHA, Table 1
  MIC: 3.1 µg/mL (≈ 5.41 µM)
[1]; A9867, MHA, Table 1
  MIC: 0.2 µg/mL (≈ 0.349 µM)
[1]; A9977, MHA, Table 1
  MIC: 0.05 µg/mL (≈ 0.0873 µM)
[1]; A15130, MHA, Table 1
  MIC: 0.2 µg/mL (≈ 0.349 µM)
[1]; Kp-1 D11, MHA, Table 3
  MIC: 0.1 µg/mL (≈ 0.175 µM)
[1]; Kp-2 A9678, MHA, Table 3
  MIC: 3.1 µg/mL (≈ 5.41 µM)
[1]; Kp-3 A9977, HIA, Table 4
  MIC: 0.2 µg/mL (≈ 0.349 µM)
[1]; Kp-3 A9977, MHA, Table 3
  MIC: 0.1 µg/mL (≈ 0.175 µM)
[1]; Kp-3 A9977, MHA, Table 4
  MIC: 0.2 µg/mL (≈ 0.349 µM)
[1]; Kp-3 A9977, NA, Table 4
  MIC: 0.4 µg/mL (≈ 0.699 µM)
[1]; Kp-4 A15130, HIA, Table 4
  MIC: 0.8 µg/mL (≈ 1.4 µM)
[1]; Kp-4 A15130, MHA, Table 3
  MIC: 0.2 µg/mL (≈ 0.349 µM)
[1]; Kp-4 A15130, MHA, Table 4
  MIC: 0.4 µg/mL (≈ 0.699 µM)
[1]; Kp-4 A15130, NA, Table 4
  MIC: 0.8 µg/mL (≈ 1.4 µM)
[1]; Kp-7 A9867, MHA, Table 3
  MIC: 0.4 µg/mL (≈ 0.699 µM)
[1]; Kp-8 A20680, MHA, Table 3
  MIC: 25 µg/mL (≈ 43.7 µM)
[1]; Kp-9 A20636, MHA, Table 3
  MIC: 12.5 µg/mL (≈ 21.8 µM)
[1]; Kp-10 A20328, MHA, Table 3
  MIC: 6.3 µg/mL (≈ 11 µM)
[1]; Kp-11 A20330, MHA, Table 3
  MIC: 1.6 µg/mL (≈ 2.79 µM)
[1]; Kp-12 A21228, MHA, Table 3
  MIC: 6.3 µg/mL (≈ 11 µM)
[1]; strain not named (1st of 4), MHA, Example 10
  MIC: 3.1 µg/mL (≈ 5.41 µM)
[1]; strain not named (2nd of 4), MHA, Example 10
  MIC: 0.1 µg/mL (≈ 0.175 µM)
[1]; strain not named (3rd of 4), MHA, Example 10
  MIC: 0.4 µg/mL (≈ 0.699 µM)
[1]; strain not named (4th of 4), MHA, Example 10
  MIC: 0.2 µg/mL (≈ 0.349 µM)
[2]; Ba-3 A9504, HIA, Table 4
  MIC: 0.2 µg/mL (≈ 0.349 µM)
[2]; Ba-3 A9504, MHA, Table 4
  MIC: 0.2 µg/mL (≈ 0.349 µM)
[2]; Ba-3 A9504, NA, Table 4
  MIC: 0.4 µg/mL (≈ 0.699 µM)
[2]; MHA, Example 10
  MIC: 0.2 µg/mL (≈ 0.349 µM)
[3]; sc 10 mg./kg.
  concentration at 0.25 h: 5000 ng/mL
  concentration at 0.5 h: 3000 ng/mL
  concentration at 1 h: 800 ng/mL
[3]; sc 20 mg./kg.
  concentration at 0.25 h: 7400 ng/mL
  concentration at 0.5 h: 6000 ng/mL
  concentration at 1 h: 4300 ng/mL
  concentration at 2 h: 700 ng/mL
[3]; sc 40 mg./kg.
  concentration at 0.25 h: 19000 ng/mL
  concentration at 0.5 h: 17000 ng/mL
  concentration at 1 h: 12000 ng/mL
  concentration at 2 h: 1600 ng/mL
[4]; 0.1 mg./kg.
  No. of survivors/No. tested: 2/5
[4]; 0.4 mg./kg.
  No. of survivors/No. tested: 5/5
[4]; 1.6 mg./kg.
  No. of survivors/No. tested: 5/5
[4]; 6.3 mg./kg.
  No. of survivors/No. tested: 5/5
[4]; 25 mg./kg.
  No. of survivors/No. tested: 5/5
[4]; Staphylococcus aureus, read-out: PD50
  ED50: 0.12 mg/kg
[5]
  dose excreted at 24 h: 38.8%
[6]; A9536, MHA, Table 1
  MIC: 100 µg/mL (≈ 175 µM)
[6]; MHA, Example 10
  MIC: > 100 µg/mL
[6]; Sf-3 S. faecalis A9536, HIA, Table 4
  MIC: > 100 µg/mL
[6]; Sf-3 S. faecalis A9536, MHA, Table 4
  MIC: > 100 µg/mL
[6]; Sf-3 S. faecalis A9536, NA, Table 4
  MIC: > 100 µg/mL
[7]; A9554, MHA, Table 1
  MIC: 0.05 µg/mL (≈ 0.0873 µM)
[7]; A9900, MHA, Table 1
  MIC: 0.1 µg/mL (≈ 0.175 µM)
[7]; Pm-1 A9554, HIA, Table 4
  MIC: 0.1 µg/mL (≈ 0.175 µM)
[7]; Pm-1 A9554, MHA, Table 3
  MIC: 0.1 µg/mL (≈ 0.175 µM)
[7]; Pm-1 A9554, MHA, Table 4
  MIC: 0.1 µg/mL (≈ 0.175 µM)
[7]; Pm-1 A9554, NA, Table 4
  MIC: 0.1 µg/mL (≈ 0.175 µM)
[7]; Pm-2 A9900, HIA, Table 4
  MIC: 0.2 µg/mL (≈ 0.349 µM)
[7]; Pm-2 A9900, MHA, Table 3
  MIC: 0.2 µg/mL (≈ 0.349 µM)
[7]; Pm-2 A9900, MHA, Table 4
  MIC: 0.2 µg/mL (≈ 0.349 µM)
[7]; Pm-2 A9900, NA, Table 4
  MIC: 0.1 µg/mL (≈ 0.175 µM)
[7]; Pm-3 A20119, MHA, Table 3
  MIC: 0.4 µg/mL (≈ 0.699 µM)
[7]; Pm-4 A20454, MHA, Table 3
  MIC: 0.2 µg/mL (≈ 0.349 µM)
[7]; Pm-5 A9702, MHA, Table 3
  MIC: 0.1 µg/mL (≈ 0.175 µM)
